This is an account of results in US20130345051A1, “FUNGICIDAL AND BACTERICIDAL COMPOSITION THAT COMPRISES VOLATILE ORGANIC COMPOUNDS OF NATURAL ORIGIN” (BIOFUNGITEK, SOCIEDAD LIMITADA, priority 2011, published 2013).

One experiment concerns Erwinia carotovora. The experiment can be described thus: Gas-phase bioassay in hermetically sealed vials, growth inhibition of the bacterium Erwinia carotovora. The format is cell-based. To be noted: compound in the gas phase; for IC50: Pectobacterium carotovorum, read-out: IC50 (50% inhibiting concentration). How it is done:
(§1) The antifungal and antibacterial activity of the VOC obtained in Example 1 was tested by bioassay in hermetically sealed vials in which the microorganism was cultured while being exposed to the compound under test in the gas phase at different concentrations. […] The IC50 (50% inhibiting concentration), the MIC (minimum inhibiting concentration) and the MLC (minimum lethal concentration) were calculated.

A further experiment relates to Botrytis cinerea. The experiment can be described thus: Gas-phase bioassay in hermetically sealed vials, growth inhibition of the fungus Botrytis cinerea. The format is cell-based. As to conditions: compound in the gas phase; for IC50: read-out: IC50 (50% inhibiting concentration). How it is done: as §1

≈ marks a conversion by molar mass, not a printed value.

For the compound `CC1(C)[C@@H]2CC[C@@]1(C)[C@H](O)C2` (racemic) [isoborneol], in the experiment on Erwinia carotovora, the IC50 is above 150 µg/mL, the “MIC (minimum inhibiting concentration)” value is reported as above 150 mg/Lair and the “MLC (minimum lethal concentration)” value is recorded as above 150 mg/Lair. Besides, in the experiment on Botrytis cinerea, the “MIC (minimum inhibiting concentration)” value was found to be 40 mg/Lair, the “MLC (minimum lethal concentration)” value is recorded as 40 mg/Lair and the IC50 was 5 µg/mL (≈ 32.4 µM).
`CCCCC(CC)CO` (stereo not drawn) [2-ethyl-1-hexanol]: in the experiment on Erwinia carotovora, the IC50 is 15 µg/mL (≈ 115 µM), the “MIC (minimum inhibiting concentration)” value amounted to 50 mg/Lair and the “MLC (minimum lethal concentration)” value is given as 75 mg/Lair. For the same compound, in the experiment with Botrytis cinerea, the “MIC (minimum inhibiting concentration)” value was found to be 5 mg/Lair, the “MLC (minimum lethal concentration)” value was determined as 10 mg/Lair and the IC50 was 4 µg/mL (≈ 30.7 µM).
For `CCCCCCO` [hexanol], in the experiment with Erwinia carotovora, the IC50 amounted to 150 µg/mL (≈ 1470 µM), the “MIC (minimum inhibiting concentration)” value is above 150 mg/Lair and the “MLC (minimum lethal concentration)” value is given as above 150 mg/Lair. In the experiment with Botrytis cinerea, the “MIC (minimum inhibiting concentration)” value is recorded as 20 mg/Lair, the “MLC (minimum lethal concentration)” value is recorded as 40 mg/Lair and the IC50 stood at 15 µg/mL (≈ 147 µM).
